Some test systems named below: A549; T47D; SK-OV-3; SF-268; IGROV-1; K562; MDA-MB-435; A498; OVCAR-5; SW-620; EKVX; UACC-62; RPMI-8226; OVCAR-3; RXF 393; HOP-62; UO-31; SR; CAKI-1.
Common to all, as to assay: NCI anticancer screen, dose series, 48 h

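Grown in 96-well plates, cells were treated for 48 hours with each compound at five concentrations. Insufficient inhibition: endpoint recorded as highest concentration tested. At the GI50, growth is halved.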 The source made the active and inactive calls. Cut-off read from the data, not from the text of the source: active = GI50 up to about 1.1 µM and inactive = higher.

The source of these data is ChEMBL document CHEMBL1201862, “PubChem BioAssay data set” (2004).

As for `Cn1cnc([N+](=O)[O-])c1Sc1nc(N)nc2c1ncn2Cc1ccccc1`, the GI50 in the test with A549 was 25.5 µM (inactive); in the test with T47D it was 13.8 µM (inactive); with SK-OV-3 it was 24.5 µM (inactive); in the test with SF-268, 16.5 µM (inactive); in the test on IGROV-1 it was 14.5 µM (inactive); in the test on K562 it was 20.5 µM (inactive). The GI50 with MDA-MB-435 is 21.6 µM (inactive); with A498 it was 25 µM (inactive); with OVCAR-5, 23.2 µM (inactive); in the test with SW-620, 22.9 µM (inactive); with EKVX, 11.5 µM (inactive); in the test with UACC-62, 16.3 µM (inactive). Further, the GI50 in the test on RPMI-8226 is 19 µM (inactive); in the test with OVCAR-3, 2.29 µM (inactive); in the test on RXF 393, 19.5 µM (inactive); in the test with HOP-62 it was 19.7 µM (inactive); with UO-31 it was 15.5 µM (inactive); in the test with SR it was 17.9 µM (inactive). The GI50 with CAKI-1 is 13.3 µM (inactive).

`COc1cccc(NC(=O)CC(=O)N2N=C(C)C(/N=N\c3ccc(S(=O)(=O)c4ccc(/N=N/C5C(=O)N(C(=O)CC(=O)Nc6cccc(OC)c6)N=C5C)cc4)cc3)C2=O)c1` (stereo not given): the GI50 in the test on A549, with T47D, with SK-OV-3, in the test with SF-268, with IGROV-1 and with K562 was > 100 µM (inactive) in each case. In addition, the GI50 in the test with MDA-MB-435, with A498, in the test with OVCAR-5, in the test with SW-620, in the test with EKVX and in the test on UACC-62 was > 100 µM (inactive) each time. Moreover, the GI50 with RPMI-8226, with OVCAR-3, with RXF 393, in the test on HOP-62, with UO-31 and in the test on SR was > 100 µM (inactive) in each case. For the same compound, in the test with CAKI-1, the GI50 is > 100 µM (inactive).

Turning to `COc1cc(NC(C)=O)ccc1C(=O)N/N=C/c1ccc(Cl)cc1Cl`, the GI50 with A549 is 48 µM (inactive); in the test on T47D, 16.3 µM (inactive); in the test on SK-OV-3, 29.7 µM (inactive); in the test with SF-268, 32.6 µM (inactive); with IGROV-1, 30.2 µM (inactive); with K562, 50.2 µM (inactive). Also, the GI50 is 19.6 µM (inactive) with MDA-MB-435; 24.1 µM (inactive) in the test on A498; 46.3 µM (inactive) in the test on OVCAR-5; > 100 µM (inactive) in the test with SW-620; 32.7 µM (inactive) in the test with EKVX; 31.6 µM (inactive) in the test on UACC-62. Besides, the GI50 in the test on RPMI-8226 was 65.6 µM (inactive); in the test with OVCAR-3, 52.8 µM (inactive); in the test on RXF 393, 20.7 µM (inactive); with HOP-62, 29.6 µM (inactive); with UO-31, 43.1 µM (inactive); in the test on SR, 18.2 µM (inactive). The GI50 in the test with CAKI-1 was 39.6 µM (inactive).

For `Cc1cc2nc(C=C(C(F)(F)F)C(F)(F)F)oc2cc1C`, the GI50 with A549 was 5.12 µM (inactive); with T47D it was 2.94 µM (inactive); in the test with SK-OV-3, > 10 µM (inactive); in the test on SF-268 it was 3.42 µM (inactive); in the test on IGROV-1, 2.91 µM (inactive); in the test on K562, 2.25 µM (inactive). Also, the GI50 in the test on MDA-MB-435 was 2.14 µM (inactive); in the test on A498, > 10 µM (inactive); in the test on OVCAR-5 it was 3.04 µM (inactive); in the test on SW-620, 1.73 µM (inactive); in the test on EKVX it was 3.15 µM (inactive); in the test with UACC-62, 3.32 µM (inactive). Also, the GI50 was 1.55 µM (inactive) with RPMI-8226; 1.95 µM (inactive) in the test with OVCAR-3; 2.49 µM (inactive) with RXF 393; 3.83 µM (inactive) in the test with HOP-62; 4.11 µM (inactive) in the test with UO-31; 2.22 µM (inactive) in the test on SR. The GI50 with CAKI-1 was 2.42 µM (inactive).

As to `COc1cccc(CCn2c(N)c(C(=O)O)c3ccc([N+](=O)[O-])cc3c2=O)c1`, the GI50 is 27.8 µM (inactive) with A549; 29.3 µM (inactive) in the test with T47D; 35.6 µM (inactive) in the test on SK-OV-3; 37.7 µM (inactive) in the test on SF-268; 36.7 µM (inactive) with IGROV-1; 67.8 µM (inactive) with K562. Moreover, the GI50 in the test with MDA-MB-435 was 38.3 µM (inactive); with A498, 40.5 µM (inactive); with OVCAR-5, 52.2 µM (inactive); in the test on SW-620, > 100 µM (inactive); in the test with EKVX, 51.5 µM (inactive); with UACC-62 it was 52.4 µM (inactive). For the same compound, the GI50 in the test with RPMI-8226 was 22.9 µM (inactive); with OVCAR-3, 29.4 µM (inactive); in the test on RXF 393, 28.7 µM (inactive); in the test with HOP-62, 37.2 µM (inactive); in the test with UO-31, 31.2 µM (inactive); with SR, 40.1 µM (inactive). Besides, the GI50 in the test on CAKI-1 was 43.5 µM (inactive).

Regarding `Cc1nc2nn[nH]n2c(=O)c1CCO`, the GI50 with A549, in the test on T47D, in the test with SK-OV-3, in the test on SF-268, in the test on IGROV-1 and in the test on K562 was > 100 µM (inactive) in each case. Further, the GI50 in the test with MDA-MB-435, in the test with A498, with OVCAR-5, with SW-620, in the test with EKVX and in the test with UACC-62 was > 100 µM (inactive) each time. Further, the GI50 with RPMI-8226, with OVCAR-3, with RXF 393, in the test with HOP-62, in the test on UO-31 and with SR was > 100 µM (inactive) in each case. The GI50 with CAKI-1 is > 100 µM (inactive).

Take `N/C(=N\Nc1ccc(Cl)cc1)c1cnccn1`: the GI50 is > 100 µM (inactive) with A549; 13 µM (inactive) with T47D; > 100 µM (inactive) in the test on SK-OV-3; > 100 µM (inactive) in the test on SF-268; > 100 µM (inactive) with IGROV-1; 3.85 µM (inactive) with K562. For the same compound, the GI50 in the test with MDA-MB-435 is 16.3 µM (inactive); with A498, > 100 µM (inactive); with OVCAR-5, > 100 µM (inactive); in the test on SW-620, > 100 µM (inactive); in the test on EKVX it was 81.7 µM (inactive); in the test on UACC-62, 5.04 µM (inactive). The GI50 in the test on RPMI-8226 was 78.3 µM (inactive); in the test with OVCAR-3, 64.3 µM (inactive); with RXF 393, > 100 µM (inactive); in the test on HOP-62, 85.5 µM (inactive); in the test on UO-31, 50.7 µM (inactive); in the test with SR it was 5.71 µM (inactive). Also, the GI50 in the test on CAKI-1 was > 100 µM (inactive).

Consider `O[C@H]1[C@H](O)[C@H](O)CN2CCC[C@@H](O)[C@H]12`, for which the GI50 in the test on A549, with T47D, with SK-OV-3, with SF-268, with IGROV-1 and in the test on K562 was > 100 µM (inactive) each time. The GI50 in the test on MDA-MB-435, in the test with A498, in the test with OVCAR-5, with SW-620, in the test with EKVX and in the test with UACC-62 was > 100 µM (inactive) throughout. In addition, the GI50 in the test with RPMI-8226, in the test with OVCAR-3, with RXF 393, in the test with HOP-62, in the test with UO-31 and in the test on SR was > 100 µM (inactive) in each case. Moreover, the GI50 in the test on CAKI-1 was > 100 µM (inactive).

Consider `COc1cc(C2C=C(c3ccccc3)Oc3cc4c(cc32)OCO4)cc(OC)c1OC` (stereo not given), for which the GI50 is 0.2 µM (active) with A549; 2 µM (inactive) with T47D; 0.191 µM (active) in the test on SK-OV-3; 3.17 µM (inactive) in the test with SF-268; 0.403 µM (active) in the test on IGROV-1; 0.435 µM (active) in the test on K562. Also, the GI50 in the test with MDA-MB-435 is 0.188 µM (active); with A498 it was 0.495 µM (active); with OVCAR-5 it was 0.585 µM (active); in the test with SW-620, 0.406 µM (active); in the test on EKVX it was 0.565 µM (active); in the test with UACC-62 it was 0.446 µM (active). The GI50 was 0.555 µM (active) in the test on RPMI-8226; 0.324 µM (active) in the test on OVCAR-3; 0.0843 µM (active) in the test on RXF 393; 0.675 µM (active) in the test on HOP-62; 1.19 µM (inactive) in the test on UO-31; 0.333 µM (active) with SR. Besides, in the test on CAKI-1, the GI50 is 0.507 µM (active).

Turning to `O=c1[nH]c(=O)n(C2CC(O)C(CO)O2)cc1I` (stereo not given), the GI50 is > 73.1 µM (inactive) in the test with A549; > 100 µM (inactive) with T47D; > 100 µM (inactive) in the test on SK-OV-3; > 100 µM (inactive) in the test with SF-268; > 100 µM (inactive) in the test on IGROV-1; > 23.1 µM (inactive) in the test on K562. The GI50 in the test on MDA-MB-435, in the test with A498, in the test with OVCAR-5, in the test on SW-620, in the test with EKVX and in the test with UACC-62 was > 100 µM (inactive) throughout. For the same compound, the GI50 in the test on RPMI-8226 was > 43.8 µM (inactive); with OVCAR-3, > 100 µM (inactive); in the test with RXF 393, > 100 µM (inactive); in the test with HOP-62, > 100 µM (inactive); in the test on UO-31, > 100 µM (inactive); with SR, 38.7 µM (inactive). Also, in the test on CAKI-1, the GI50 was 63.8 µM (inactive).
